# What was measured:
# Botrytis cinerea = experiment: Fungicide test, Botrytis cinerea on broad beans; type: in vivo; conditions: 500 mg of active substance/l spray mixture; approximately 1 week after inoculation
# Procedure: Broad beans cv. "Herz Freya" or "[…]" approximately 14 days old, were treated to runoff point with aqueous suspensions of the compounds according to the invention. After the spray coating had dried off, the plants were inoculated with a spore suspension (1.5 million spores/ml) of Botrytis cinerea. The plants were grown on in a controlled-environment cabinet at 20°-22° C. under relative atmospheric humidity of approximately 99%. […] The experiments were evaluated approximately 1 week after inoculation. The disease level of the plants was scored in percent relative to untreated, 100% infected control plants.
# Plasmopara viticola = experiment: Fungicide test, Plasmopara viticola on grapevine seedlings; type: in vivo; conditions: 500 mg of active substance/l spray mixture; incubation 7 days
# Procedure: Approximately 6 weeks after sowing, grapevine seedlings "Riesling/Ehrenfelder" were treated to runoff point using aqueous suspensions of the compounds according to the invention. After the spray coating had dried on, the plants were inoculated with a zoosporangia suspension of Plasmopara viticola and the dripping wet plants were placed for 4 to 5 hours into a controlled-environment cabinet at 23° C. at a relative atmospheric humidity of 80-90%.
# After an incubation time of 7 days in the greenhouse, the plants were returned overnight into the controlled-environment cabinet to stimulate sporulation of the fungus. The disease was then evaluated. The disease level was expressed in % of diseased leaf area in comparison with the untreated, 100% infected control plants.
# [1] = system: eggs of the large milkweed bug (Oncopeltus fasciatus); experiment: Ovicidal activity, eggs of large milkweed bug on paper filter disks; type: in vivo; conditions: 168 h, after 7 days
# Procedure: Paper filter disks onto which eggs of the large milkweed bug (Oncopeltus fasciatus) have been placed are treated with in each case 0.5 ml of aqueous dilution of the test formulation. After the coating has dried on, the Petri dish is sealed, and the inside is kept at maximum atmospheric humidity. After the dishes have been kept at room temperature, the ovicidal activity was determined after 7 days.
# [2] = system: tobacco hornworm (Manduca sexta); experiment: Oral application to larvae (L4) of tobacco hornworm; type: in vivo
# Procedure: Active substances which were dissolved in acetone were applied orally to butterfly larvae (L4) of tobacco hornworm (Manduca sexta). After active substance of Example No. 3 or 8 (2×10^-4 g of a.i./animal) had been applied, a mortality of 100% was found after 48 hours.
# [3] = system: eggs of Diabrotica undecimpunctata; experiment: Activity against freshly deposited eggs of southern corn rootworm; type: in vivo; conditions: 120 h, after 5 days
# Procedure: Freshly deposited eggs of Diabrotica undecimpunctata (southern corn rootworm) were sprayed, on paper filters, with in each case 2 ml of an aqueous suspension of wettable powders (active substance content 250 ppm) and were subsequently observed at room temperature. After 5 days, the eggs were examined for mortality.
# [4] = system: whitefly (Trialeurodes vaporariorum); experiment: Insecticide test, whitefly on bean plants; type: in vivo; conditions: 336 h, after 14 days
# Description: Bean plants which were heavily populated with whitefly (Trialeurodes vaporariorum) were sprayed to the beginning of the run-off point using aqueous suspensions of concentrates of wettable powders (250 ppm active substance content). After the plants had been placed in the greenhouse, they were subjected to microscope checks after 14 days, resulting in a 100% mortality in the case of each preparation containing the active substances of Example Nos. 4, 5, 10, 19, 20, 24, 27, 28, 130 and 139.
# [5] = system: two-spotted spider mite (Tetranychus urticae); experiment: Acaricide test, two-spotted spider mite on bean plants; type: in vivo; conditions: 168 h, after 7 days, read-out: mortality rate of the mites
# Description: Bean plants (Phaseolus v.) which were heavily infested with the two-spotted spider mite (Tetranychus urticae, full population) were sprayed with the aqueous dilution of a concentrate of wettable powder, containing 250 ppm of the active substance in question. The mortality of the mites was checked after 7 days.
# [6] = system: tropical cattle ticks (Boophilus microplus); experiment: In vitro test on tropical cattle ticks, inhibition of oviposition; type: in vivo; conditions: Rhipicephalus microplus, 336 h, immersion five minutes, two weeks after treatment
# Procedure: In vitro test on tropical cattle ticks (Boophilus microplus) The following experimental set-up allowed the effectiveness of the compounds according to the invention against ticks to be confirmed.
# To produce a suitable preparation of active substance, the active substances were dissolved to 10% strength (w/v) in a mixture composed of dimethylformamide (85 g), nonylphenolpolyglycol ether (3 g) and ethoxylated castor oil (7 g), and the resulting emulsion concentrates were diluted with water to a test concentration of 500 ppm.
# Batches of ten females of the tropical tick Boophilus microplus which had sucked themselves full were immersed for five minutes in these active substance dilutions. The ticks were subsequently dried on paper filters and then attached, with their backs, to an adhesive film-in order to deposit eggs. The ticks were kept in an incubator at 28° C. at an atmospheric humidity of 90%.
# As a control, the female ticks were immersed just in water. Two weeks after the treatment, the inhibition of oviposition was used to determine the effectiveness. 100% means that no ticks have deposited eggs, 0 that all ticks have deposited eggs.
# Spodoptera littoralis = experiment: Insecticide test, Egyptian cotton leafworm larvae (L3); type: in vivo; conditions: 120 h, after 5 days
# Procedure: Spodoptera littoralis (Egyptian cotton leafworm) larvae in the L3 stage were introduced into Petri dishes filled with nutrient medium, and these dishes together with the larvae were sprayed with 2 ml of an aqueous suspension of wettable powder containing 250 ppm (Corresponding to 6000 l of water/ha). After the spray coating had dried on, the Petri dishes were sealed and stored for 5 days at 21° C. After 5 days, the compound of Example No. 28 had caused a mortality of the Spodoptera larvae of 100%.
# Phytophthora infestans = type: in vivo; conditions: 500 mg of active substance/l spray mixture; approximately 1 week after inoculation
# Leptosphaeria nodorum = experiment: Fungicide test, Leptosphaeria nodorum on wheat plants; type: in vivo; conditions: 500 mg of active substance/l spray mixture
# Procedure: Wheat plants cv. "Jubilar" in the 2-leaf stage were wetted to runoff point using aqueous suspensions of the preparations according to the invention. […] The plants were grown on in the greenhouse at a relative atmospheric humidity of approximately 90% until the symptoms became visible. The disease level was determined in % of diseased leaf area in comparison with the untreated, 100% infected control plants.
# Erysiphe graminis = experiment: Fungicide test, Erysiphe graminis (powdery mildew) on barley plants; type: in vivo, Erysiphe graminis f. sp. hordei; conditions: 500 mg of active substance/l spray mixture; applied 24 hours after inoculation; 10 days
# Procedure: Barley plants in the 3-leaf stage were inoculated with large amounts of conidia of powdery mildew of barley (Erysiphe graminis f. sp. hordei) and placed in a greenhouse at 20° C. and a relative atmospheric humidity of 90 to 95%. 24 hours after the inoculation, the plants were wetted uniformly with the abovementioned compounds. After an incubation time of 10 days, the plants were examined for the occurrence of powdery mildew of barley. The disease level was determined in % of diseased leaf area based on untreated, 100% infected control plants.
# Pyrenophora teres = experiment: Fungicide test, Pyrenophora teres on barley plants; type: in vivo; conditions: 500 mg of active substance/l spray mixture; approximately 1 week after inoculation
# Procedure: Barley plants cv. "Igri" in the 2-leaf stage were wetted to runoff point with an aqueous suspension of the compounds according to the invention. […] The infected plants were subsequently grown on in the greenhouse at 25° C. at a relative atmospheric humidity of 80%. The disease level was evaluated approximately 1 week after inoculation. The disease level was determined in % of diseased leaf area in comparison with untreated, 100% infected control plants.
Structure (SMILES),disease suppression (Botrytis cinerea),mortality at 250 ppm [1] [%],mortality at 250 ppm [4] [%],mortality at 250 ppm [5] [%],further results
CC(C)(C)C1CCC(Nc2ccnc3ccccc23)CC1 (stereo not drawn) [Compound 3],suppress disease completely,100,–,–,"disease suppression (Plasmopara viticola): suppress disease completely; mortality at 0.2 mg ([2]; po, 48 h): 100%; mortality at 250 ppm [3]: 100%"
CC(C)(C)C1CCC(Oc2ccnc3ccccc23)CC1 (stereo not drawn) [Compound 4],–,–,100,100,mortality at 250 ppm [3]: 100%
CC(C)(C)[C@H]1CC[C@@H](Nc2ccnc3c(F)cccc23)CC1 [Compound 5],–,–,100,–,–
CC(C)(C)[C@H]1CC[C@@H](Nc2ccnc3cc(Cl)ccc23)CC1 [Compound 7],suppress disease completely,–,–,–,disease suppression (Plasmopara viticola): suppress disease completely
CC(C)(C)[C@H]1CC[C@@H](Nc2ccnc3cc(C(F)(F)F)ccc23)CC1 [Compound 8],–,–,–,–,"mortality at 0.2 mg ([2]; oral, 2×10^-4 g of a.i./animal, after 48 hours): 100%"
CCCC[C@H]1CC[C@@H](Oc2ccnc3ccccc23)CC1 [Compound 10],–,100,100,100,–
CCC(C)(C)[C@H]1CC[C@@H](Oc2ccnc3ccccc23)CC1 [Compound 14],–,–,–,–,inhibition at 500 ppm [6]: 100%
CC(C)(C)CC(C)(C)C1CCC(Nc2ccnc3ccccc23)CC1 (stereo not drawn) [Compound 19],suppress disease completely,100,100,100,disease suppression (Plasmopara viticola): suppress disease completely
CC(C)(C)CC(C)(C)[C@H]1CC[C@@H](Oc2ccnc3ccccc23)CC1 [Compound 20],–,–,100,100,inhibition at 500 ppm [6]: 100%
c1ccc2c(NC3CCC(C4CCCCC4)CC3)ccnc2c1 (stereo not drawn) [Compound 23],suppress disease completely,100,–,100,–
"c1ccc2c(O[C@H]3CC[C@@H](C4CCCCC4)CC3)ccnc2c1 [Compound 24, 4-(4-Cyclohexylcyclohexyloxy)quinoline]",–,–,100,100,–
"c1ccc([C@H]2CC[C@@H](Nc3ccnc4ccccc34)CC2)cc1 [Compound 25, 4-(4-Phenylcyclohexylamino)quinoline]",suppress disease completely,–,–,–,disease suppression (Plasmopara viticola): suppress disease completely
"c1ccc([C@H]2CC[C@H](Nc3ccnc4ccccc34)CC2)cc1 [Compound 26, 4-(4-Phenylcyclohexylamino)quinoline]",suppress disease completely,–,–,–,disease suppression (Plasmopara viticola): suppress disease completely
c1ccc([C@H]2CC[C@@H](Oc3ccnc4ccccc34)CC2)cc1 [Compound 27],–,100,100,100,mortality at 250 ppm [3]: 100%; inhibition at 500 ppm [6]: 100%
Fc1cccc2c(N[C@H]3CC[C@@H](c4ccccc4)CC3)ccnc12 [Compound 28],–,–,100,–,mortality at 250 ppm (Spodoptera littoralis): 100%; inhibition at 500 ppm [6]: 100%
CCOc1ccc([C@H]2CC[C@@H](Nc3ccnc4ccccc34)CC2)cc1 [Compound 45],suppress disease completely,100,–,–,disease suppression (Phytophthora infestans): suppress disease completely
Cc1cc(N[C@H]2CC[C@@H](C(C)(C)CC(C)(C)C)CC2)c2ccccc2n1 [Compound 80],suppress disease completely,–,–,–,–
CCC(C)(C)[C@H]1CC[C@@H](Nc2ccnc3cccnc23)CC1 [Compound 130],–,100,100,100,disease suppression (Plasmopara viticola): suppress disease completely; disease suppression (Leptosphaeria nodorum): suppress disease completely; mortality at 250 ppm [3]: 100%
CC(C)(C)CC(C)(C)[C@H]1CC[C@@H](Oc2ccnc3cccnc23)CC1 [Compound 133],–,–,–,100,–
c1ccc([C@H]2CC[C@@H](Oc3ccnc4cccnc34)CC2)cc1 [Compound 139],–,100,100,100,disease suppression (Erysiphe graminis): suppress disease completely; disease suppression (Pyrenophora teres): suppress disease completely; mortality at 250 ppm [3]: 100%
c1ccc([C@H]2CC[C@@H](Nc3ccnc4ncccc34)CC2)cc1 [Compound 208],–,100,–,–,–
Cc1ccc2c(NC3CCC(C(C)(C)CC(C)(C)C)CC3)ccnc2n1 (stereo not drawn) [Compound 215],–,100,–,–,–
CCC(C)(C)[C@H]1CC[C@@H](Nc2ncnc3cccnc23)CC1 [Compound 232],–,–,–,–,disease suppression (Plasmopara viticola): suppress disease completely; mortality at 250 ppm [3]: 100%
c1ccc([C@H]2CC[C@@H](Nc3ncnc4ncccc34)CC2)cc1 [Compound 280],–,100,–,–,–
